Here are results for 5 molecules from publication PMC7824033, “Flavones, Flavonols, and Glycosylated Derivatives—Impact on Candida albicans Growth and Virulence, Expression of CDR1 and ERG11, Cytotoxicity” (Pharmaceuticals, 2020).

≈ marks a conversion by molar mass, not a printed value. Entries after “also recorded” stand apart in the source; their conditions may differ. Where two headings read alike, the source gives them in different places. Where only a bound is given, the exact number is not on record here.

Data set [1] relates to C. albicans 10/15. The data set is described as follows: Microdilution assay, MIC and MFC. It counts as cell-based. As to conditions: Candida albicans. An excerpt: (§1) C. albicans was isolated from oral cavities of patients at ENT Clinic, Clinical Hospital Centre Zvezdara, Belgrade, Serbia after obtaining informed written consent and identified by using CHROMagar plates (Biomerieux, Craponne, France). Strains were maintained on Sabouraud Dextrose Agar (Merck, Darmstadt, Germany) and are deposited at the Mycological Laboratory, Department of Plant Physiology, Institute for Biological Research “Siniša Stanković”, National Institute of Republic of Serbia, University of Belgrade. The collection of samples was approved by the Ethical Committee (Office for Human Research Protection, Zvezdara University Medical Center, Belgrade, Serbia, document issued 26 October 2016).
(§2) Microdilution assay with some modification was used for determination of minimum inhibitory (MIC) and minimum fungicidal concentrations (MFC). Yeast cultures were adjusted to 1.0 × 10^5 CFU/per well with sterile PBS (Phosphate buffered saline, pH 7.4). The 96-well microtiter plates with serially diluted flavonoids (concentration range 0.3–75 µg/mL) in liquid broth were incubated at 37 °C for 24 h. After incubation, MIC and MFC were determined. The lowest concentrations that were not inducing microscopically observed growth were considered as MIC. For microscopic determination of growth, we used inverted microscope Nikon Eclipse TS2 (Amsterdam, Netherland) and examined the fungal growth in the wells of 96-well microtiter plates compared to the control (untreated yeast cells). MFC values were determined as concentrations without visible growth after serial sub-cultivation of 10 µL of samples at 37 °C for 24 h. Ketoconazole and amphotericin B (SigmaAldrich, Darmstadt, Germany) were used as an antifungal control. The tested flavonoids were obtained from Extrasynthese, Rhone, France.

For data set [2], the system named is C. albicans 527/14. The data set is described as follows: Microdilution assay, MIC and MFC. It counts as cell-based. As to conditions: Candida albicans.
From the text: as §1, §2

The test system of data set [3] is C. albicans 475/15. The data set is described as follows: Microdilution assay, MIC and MFC. It counts as cell-based. Particulars: Candida albicans.
From the text: as §1, §2

In data set [4] the test system is C. albicans 13/15. The data set is described as follows: Microdilution assay, MIC and MFC. In kind it is cell-based. Particulars: Candida albicans.
From the text: as §1, §2

Data set [5] can be described thus: Cytotoxicity, Sulforhodamine B assay. Particulars: pig. The procedure:
Preparation of PLP2 cell line was performed with freshly harvested porcine liver supplied from a local slaughter house. Tissues from the liver were washed in Hank’s balanced salt solution comprising 100 U/mL penicillin and 100 μg/mL streptomycin and split into 1 × 1 mm^3 explants. Some of the prepared explants were set in 25 cm^2 tissue flasks in Dulbecco’s modified Eagle’s medium (DMEM) with 10% fetal bovine serum (FBS), 2 mM nonessential amino acids, 100 U/mL penicillin, and […] streptomycin, and incubation was conducted at 37 °C with 5% CO2 in a humidified atmosphere. The fresh medium was added every 2 days. Cultivation of the cells was further conducted with direct observation by the phase contrast microscope every 2–3 days. Before confluence was achieved, cells were subcultured and seeded in 96-well plates at a density of 1.0 × 10^4 cells per well and cultivated in DMEM supplemented with 10% FBS, 100 U/mL penicillin, and 100 μg/mL streptomycin. Previously described Sulforhodamine B assay was used for the determination of cytotoxicity. The obtained results were defined as GI50 values corresponding to the compound concentration that inhibits 50% of the net cell growth. Ellipticine was used as a positive control.

The subject of data set [6] is C. albicans 475/15 biofilm formation. The data set is described as follows: Inhibition of biofilm formation (crystal violet). It counts as cell-based, Candida albicans. Particulars: for antibiofilm activity: MIC and subMICs; for inhibition of biofilm formation: compound applied at MIC. Here is the method: Potential of selected compounds to interfere with C. albicans 475/15 biofilm formation was investigated as previously described. Briefly, C. albicans 475/15 was incubated with serial dilution of the compounds (MIC and subMICs) in YPD medium, in 96-well microtiter plates with adhesive bottom (Sarstedt, Nümbrecht, Germany), at 37 °C for 24 h. After incubation, wells were washed twice with sterile PBS and methanol was added into each well. After fixation, methanol was discarded, and the plate was air dried. Formed biofilms were stained with 0.1% crystal violet (Bio-Merieux, Craponne, France) for 30 min. The plate was gently washed under the tap of water and air dried. The stain bound to the remaining biofilms was dissolved with ethanol (96%, Zorka, Šabac, Serbia). Absorbance was read on a Multiskan™ FC Microplate Photometer, Thermo Scientific™. The percentage of inhibition of biofilm formation was calculated by the formula:[(A620control − A620sample)/A620control] × 100

Data set [7] deals with C. albicans biofilm. Particulars: C. albicans CAD1 biofilm; cited from earlier work.
Data set [8] has as its system CDR1. The data set is described as follows: Expression of CDR1 (qPCR). It counts as cell-based, Candida albicans. As to conditions: treatment with MIC. The procedure:
(§3) Total RNA was isolated as described by Sanglard et al. with some modifications. C. albicans 475/15 was grown with agitation at 30 °C in YEPD until OD540 = 0.4. C. albicans cells were incubated with MIC of compounds in YEPD at 30 °C with agitation for 30 min. Cells were centrifuged (4600 rpm, 4 °C for 5 min (Rotanata 460 R, Hettich, Tuttlingen, Germany)) and the pellet was resuspended in 300 µL of RNA buffer (0.1 M Tris-HCl pH 7.5, 0.1M LiCl, 10mM EDTA, 0.5% SDS). The pellet was homogenized with 200 µL of DEPC treated glass beads and 300 µL of Phenol:Chloroform:Isoamyl Alcohol (Sigma-Aldrich, Darmstadt, Germany) in Precellys Evolution tissue homogenizer (Bertion instruments, Montigny-le-Bretonneux, France) at 4500 rpm for 5 s. After centrifugation (14,000 rpm, 4 °C, 1 min (Universal 32 R, Hettich, Tuttlingen, Germany)) 200 µL of supernatant was vortexed with 250 µL of Phenol:Chloroform:Isoamyl Alcohol for 10 s. Samples were centrifuged (14,000 rpm, 4 °C, 1 min) and 200 µL of supernatant was transferred to new tubes, 400 µL of ice-cold 99% ethanol was added to each tube, and they were kept on dry ice for 10 min. Samples were centrifuged (14,000 rpm, 4 °C, 2 min), pellet was washed with ethanol (70%), left to dry at room temperature, after which it was dissolved in 50 µL of DEPC treated water. Nanodrop (ND-1000, Witec AG, Sursee, Switzerland) was used for determination of concentration and purity of samples. RNA was stored at −80°C.
(§4) Amount of 10 µg RNA was incubated with 5 µL of DNAse buffer and 1 µL of DNAse at 37 °C for 30 min (DNA-free™ DNA Removal Kit, Ambion, Bleiswijk, Netherlands). After addition of DNAse inactivation reagent tubes were kept at room temperature with occasional vortexing for 5 min. Samples were centrifuged (14,000 rpm, 4°C, 2 min) and the concentration and quality of supernatant were analyzed on Nanodrop (ND-1000, Witec AG, Sursee, Switzerland).
(§5) Synthesis of cDNA was done with a Transcriptor High Fidelity cDNA synthesis kit (Roche). RNA (1 µg) was incubated with 60 µM random hexamer primers, in 11.4 µL of total sample volume, at 65 °C for 10 min. The mixture of Transcriptase reaction buffer 5×, Deoxynucleotide mix, DTT, Protector RNAse inhibitor, and Transcriptor High Fidelity Reverse Transcriptase was added to each tube according to manufacturer instructions. Synthesis of cDNA was completed by incubating the mixture at 50 °C for 30 min and 85 °C for 5 min (Peqstar thermocycler, Peqlab, Erlangen, Germany).
(§6) Wells of MicroAmp Fast 96-Well Reaction plate ((0.1 mL), Applied biosystems, Waltham, MA, USA) were incubated with 10 µL of mixture (cDNA, 2× MasterMix, primers, probe (Table 3), and water). Analysis was performed in StepOnePlus Real Time PCR system with relative standard curve method. Expression levels of CDR1 and ERG11 were normalized to expression of ACT1.

The subject of data set [9] is Candida albicans. The data set is described as follows: Microdilution assay, MIC (strain not named). It counts as cell-based. As to conditions: read-out: minimum inhibitory concentration (MIC).
From the text: as §1, §2

The test system of data set [10] is C. albicans. As to conditions: cited from earlier work.
Data set [11] concerns ERG11. Kind of data set: Expression of ERG11 (qPCR). It counts as cell-based, Candida albicans. As to conditions: treatment with MIC. The procedure: as §3, §4, §5, §6
For data set [12], the system named is CDR1. Particulars: identical assay, previously published; cited from earlier work.
[13] abbreviates: C. albicans 10/15, mean ± SD of three replicates, read-out: MFC.
Setting [14] is: C. albicans 10/15, mean ± SD of three replicates, read-out: MIC.
Where [15] appears, read: C. albicans 527/14, mean ± SD of three replicates, read-out: MFC.
The mark [16] stands for this setting: C. albicans 527/14, mean ± SD of three replicates, read-out: MIC.
[17] abbreviates: C. albicans 475/15, mean ± SD of three replicates, read-out: MFC.
The mark [18] stands for this setting: C. albicans 475/15, mean ± SD of three replicates, read-out: MIC.
[19] abbreviates: C. albicans 13/15, mean ± SD of three replicates, read-out: MFC.
Setting [20] is: C. albicans 13/15, mean ± SD of three replicates, read-out: MIC.

For `C[C@@H]1[C@H](O)[C@@H](C)/C=C/C=C/C=C/C=C/C=C/C=C/C=C/[C@H](O[C@@H]2O[C@H](C)[C@@H](O)[C@H](N)[C@@H]2O)C[C@@H]2O[C@](O)(C[C@@H](O)C[C@@H](O)[C@H](O)CC[C@@H](O)C[C@@H](O)CC(=O)O[C@H]1C)C[C@H](O)[C@H]2C(=O)O` [Amphotericin B, amphotericin B, reference compound], the minimal fungicidal concentration (MFC) in data set [1] (setting [13]), in [2] (setting [15]), in data set [3] (setting [17]) and in [4] (setting [19]) was 1.25 ± 0.002 µg/mL (≈ 1.35 µM) throughout. Moreover, the MIC in data set [1] (setting [14]), in data set [2] (setting [16]), in data set [3] (setting [18]) and in data set [4] (setting [20]) was 0.63 ± 0.001 µg/mL (≈ 0.682 µM) throughout.
`Cc1c2ccncc2c(C)c2c1[nH]c1ccccc12` [Ellipticin, Ellipticine, reference compound] came in with a GI50 in data set [5] of 3.22 ± 0.2 µg/mL (≈ 13.1 µM).
For the molecule `C[C@@H]1O[C@@H](Oc2c(-c3ccc(O)c(O)c3)oc3cc(O)cc(O)c3c2=O)[C@H](O)[C@H](O)[C@H]1O` [Quercitrin, quercitrin], the “antibiofilm activity” value is “lowest potential to reduce biofilm formation” in data set [6] and “complete lack of activity” in data set [7]. The “inhibition of biofilm formation” value in [6] is given as “less than 50%”. In [5], this molecule displayed a GI50 of 73 ± 3 µg/mL (≈ 163 µM). The MFC in data set [1] (10/15), in data set [2] (527/14), in [3] (475/15) and in data set [4] (13/15) was 75 ± 3 µg/mL (≈ 167 µM) throughout. Moreover, the MIC in [1] (10/15) is 37.5 ± 2 µg/mL (≈ 83.6 µM); in data set [2] (527/14), 37.5 ± 2 µg/mL (≈ 83.6 µM); in data set [3] (475/15), 37.5 ± 2 µg/mL (≈ 83.6 µM); in [4] (13/15), 37.5 ± 1 µg/mL (≈ 83.6 µM); in data set [9], 37.5 µg/mL (≈ 83.6 µM); in data set [10] (C. albicans ATCC 10231, ref 17), 100 µg/mL (≈ 223 µM). In addition, in [10] (C. albicans CAD1, clinical isolate), the MIC is given as over 512 µg/mL. The “impact on CDR1 expression” value in data set [8] is reported as “downregulated”.
For `C[C@@H]1O[C@@H](OC[C@H]2O[C@@H](Oc3c(-c4ccc(O)c(O)c4)oc4cc(O)cc(O)c4c3=O)[C@H](O)[C@@H](O)[C@@H]2O)[C@H](O)[C@H](O)[C@H]1O` [Rutin, rutin], the “antibiofilm activity” value in data set [6] was “lowest activity against biofilm formation”; in [7] it was “lack of C. albicans CAD1 antibiofilm activity”. Also, in [6], the “inhibition of biofilm formation” value is given as “less than 50%”. The molecule also displayed a GI50 in data set [5] of over 400 µg/mL. Further, the MFC amounted to 75 ± 2 µg/mL (≈ 123 µM) in [1] (setting [13]), 75 ± 1 µg/mL (≈ 123 µM) in data set [2] (setting [15]), 75 ± 1 µg/mL (≈ 123 µM) in [3] (setting [17]) and 75 ± 2 µg/mL (≈ 123 µM) in data set [4] (setting [19]). The MIC in data set [1] (setting [14]) was 37.5 ± 1 µg/mL (≈ 61.4 µM); in data set [2] (setting [16]), 37.5 ± 1 µg/mL (≈ 61.4 µM); in data set [3] (setting [18]), 37.5 ± 1 µg/mL (≈ 61.4 µM); in [4] (setting [20]) it was 37.5 ± 1 µg/mL (≈ 61.4 µM); in data set [9] (C. albicans, this study, strain not given), 37.5 µg/mL (≈ 61.4 µM); in data set [10] (C. albicans ATCC 10231, ref 21) it was 40 µg/mL (≈ 65.5 µM). The MIC in [10] (C. albicans ATCC 18804) is listed as over 1000 µg/mL. Further, the “concentration necessary for growth inhibition” value in data set [10] (C. albicans CA-1) is 1000 µg/mL. Besides, the “impact on ERG11 expression (words)” value in data set [11] is recorded as “lower expression levels; also recorded: negative impact; also recorded: lowering ERG11 expression”.
Regarding `O=c1c(O[C@@H]2O[C@H](CO)[C@@H](O)[C@H](O)[C@H]2O)c(-c2ccc(O)cc2)oc2cc(O)cc(O)c12` [astragalin], the “impact on CDR1 expression” value in data set [12] is on record as “inhibitory impact”.
